Measurements from patent US20140378408A1, “NUCLEOSIDE 5'-PHOSPHOROTHIOATE ANALOGUES AND USES THEREOF” (BAR-ILAN UNIVERSITY, an Israeli University, priority 2012, published 2014).

Assays:
[1] = biological target: T1, NPP1 from matrix vesicles (MVs) (Homo sapiens, UniProt P22413); assay: NTMP hydrolysis in matrix vesicles; type: biochemical; conditions: 0.1 mM, NTMP 0.1 mM, OD 405 nm
T1 construct: Its hydrolysis by endogenous enzyme (NPP1) from matrix vesicles (MVs); from tissue; host or cells: matrix vesicles (MVs)
Description: Increased chondrocyte PPi production, and PPi-generating NPP1 activity are linked with CPPD crystal deposition disease, common in aging and osteoarthritic cartilage. […] Its hydrolysis by endogenous enzyme (NPP1) from matrix vesicles (MVs), human chondrocytes or cartilage pieces results in elevated OD at 405 nm.
In order to test the ability of the NPP1 inhibitor APPCCl2P-α-S (isomer A) to inhibit NTMP hydrolysis in MVs, MVs at 2.6 mg/ml (final concentration) were incubated with 0.1 mM NTMP in 2-[(2-Hydroxy-1,1-bis(hydroxymethyl)ethyl)amino]ethanesulfonic acid (TES; Sigma catalog number T1375), pH 7.37, in the presence or absence of 0.1 mM of said NPP1 inhibitor for 0, 15′, 30′, 1, 2, 4, 8 hours at 37° C. At each time point the reaction was read at 405 nm.

PC12 cells = assay: Stability of nucleotides in PC12 cells

T1 sequence (P22413 whole entry): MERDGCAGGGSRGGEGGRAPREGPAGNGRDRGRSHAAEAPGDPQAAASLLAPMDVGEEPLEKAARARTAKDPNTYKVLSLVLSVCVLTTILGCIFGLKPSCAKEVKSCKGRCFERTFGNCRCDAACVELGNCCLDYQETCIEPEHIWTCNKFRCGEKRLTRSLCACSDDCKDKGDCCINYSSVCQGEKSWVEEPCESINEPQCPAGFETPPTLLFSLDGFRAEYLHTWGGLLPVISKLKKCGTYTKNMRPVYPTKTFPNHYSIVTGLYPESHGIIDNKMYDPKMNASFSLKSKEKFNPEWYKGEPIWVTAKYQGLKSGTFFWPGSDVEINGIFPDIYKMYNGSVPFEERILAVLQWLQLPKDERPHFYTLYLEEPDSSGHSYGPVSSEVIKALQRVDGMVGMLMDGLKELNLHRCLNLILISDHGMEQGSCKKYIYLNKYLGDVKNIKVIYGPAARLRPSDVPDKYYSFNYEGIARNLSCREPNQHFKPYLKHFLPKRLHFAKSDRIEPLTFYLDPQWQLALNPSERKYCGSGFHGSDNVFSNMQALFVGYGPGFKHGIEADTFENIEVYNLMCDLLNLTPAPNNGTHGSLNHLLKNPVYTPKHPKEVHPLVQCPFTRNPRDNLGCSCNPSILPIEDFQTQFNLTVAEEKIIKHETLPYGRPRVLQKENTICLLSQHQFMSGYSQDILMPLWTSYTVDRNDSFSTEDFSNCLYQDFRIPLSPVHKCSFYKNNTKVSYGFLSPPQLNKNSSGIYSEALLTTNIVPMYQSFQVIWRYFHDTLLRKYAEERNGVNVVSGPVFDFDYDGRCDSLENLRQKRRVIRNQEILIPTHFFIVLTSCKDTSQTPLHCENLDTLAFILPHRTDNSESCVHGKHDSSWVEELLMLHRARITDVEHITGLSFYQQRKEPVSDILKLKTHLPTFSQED

Row | SMILES | inhibition of NTMP hydrolysis in MVs [1] | fold more stable in PC12 cells than parent nucleotide (GDP, ADP) (PC12 cells) [fold]
1 | Nc1ncnc2c1ncn2[C@@H]1O[C@H](COP(O)(=S)OP(=O)(O)C(Cl)(Cl)P(=O)(O)O)[C@@H](O)[C@H]1O (single isomer, unassigned; isomer a) [APPCCl2P-α-S (isomer A), adenosine 5′-[Pα-thio]-β,γ-(dichloromethylene)triphosphate] | inhibit the hydrolysis of NTMP | 
2 | Nc1ncnc2c1ncn2[C@@H]1O[C@H](COP(=O)(O)OP(O)(O)=S)[C@@H](O)[C@H]1O [ADP-β-S, adenosine 5′-[β-thio]diphosphate, reference compound] |  | 3
